Laboratory results taken from patent US11311522B1 (Cavion, Inc., priority 2018, dated 2022).

Assay: PN001/Part I: safety and tolerability
Format: in vivo, human
Text: Safety was monitored throughout by adverse events, vital signs, and repeated clinical and laboratory evaluations. […] All adverse events were mild or moderate and severity and transient.

In the case of `CC(C)c1ccc(CC(=O)N[C@H](C)c2ccc(OCC(F)(F)F)cn2)cc1` [CX-8998], the Abnormal physical sensation (1 mg) is reported as 0 n (%), the “At least 1 adverse event” value (1 mg) is reported as 2 (33.3) n (%) and the Dizziness (1 mg) is reported as 0 n (%). For the same compound, the Drowsiness (1 mg) was 0 n (%), the Elevated mood (1 mg) was 0 n (%) and the Euphoric mood (1 mg) was 0 n (%). For the same compound, the “Eye Disorders” value (1 mg) was 0 n (%), the Fatigue (1 mg) was 0 n (%) and the Feeling abnormal (1 mg) was 0 n (%). The Floating feeling (1 mg) was 0 n (%), the “Gastro-intestinal Disorders” value (1 mg) was 0 n (%) and the Hangover effect (1 mg) was 0 n (%). The Headache (1 mg) was 2 (33.3) n (%), the Indifference (1 mg) was 0 n (%) and the “Injury, Poisoning and Procedural Complications” value (1 mg) was 0 n (%). The Insomnia (1 mg) was 0 n (%), the Intoxication (1 mg) was 0 n (%) and the Irritability (1 mg) was 0 n (%). For the same compound, the Lethargy (1 mg) was 0 n (%), the “Nervous System Disorders” value (1 mg) was 2 (33.3) n (%) and the Paraesthesia (1 mg) was 0 n (%). For the same compound, the Paraesthesia oral (1 mg) was 0 n (%), the Paraesthesia tongue (1 mg) was 0 n (%) and the “Psychiatric Disorders” value (1 mg) was 0 n (%). The Racing thoughts (1 mg) was 0 n (%), the Relaxed (1 mg) was 0 n (%) and the Sensory disturbance (1 mg) was 0 n (%). For the same compound, the Vision blurred (1 mg) was 0 n (%), the Visual disturbance (1 mg) was 0 n (%) and the Vivid dreams (1 mg) was 0 n (%). For the same compound, the Abnormal physical sensation (1 mg fed) was 0 n (%), the “At least 1 adverse event” value (1 mg fed) was 0 n (%) and the Dizziness (1 mg fed) was 0 n (%). The Drowsiness (1 mg fed) was 0 n (%), the Elevated mood (1 mg fed) was 0 n (%) and the Euphoric mood (1 mg fed) was 0 n (%). The “Eye Disorders” value (1 mg fed) was 0 n (%), the Fatigue (1 mg fed) was 0 n (%) and the Feeling abnormal (1 mg fed) was 0 n (%). The Floating feeling (1 mg fed) was 0 n (%), the “Gastro-intestinal Disorders” value (1 mg fed) was 0 n (%) and the Hangover effect (1 mg fed) was 0 n (%). For the same compound, the Headache (1 mg fed) was 0 n (%), the Indifference (1 mg fed) was 0 n (%) and the “Injury, Poisoning and Procedural Complications” value (1 mg fed) was 0 n (%). For the same compound, the Insomnia (1 mg fed) was 0 n (%), the Intoxication (1 mg fed) was 0 n (%) and the Irritability (1 mg fed) was 0 n (%). The Lethargy (1 mg fed) was 0 n (%), the “Nervous System Disorders” value (1 mg fed) was 0 n (%) and the Paraesthesia (1 mg fed) was 0 n (%). The Paraesthesia oral (1 mg fed) was 0 n (%), the Paraesthesia tongue (1 mg fed) was 0 n (%) and the “Psychiatric Disorders” value (1 mg fed) was 0 n (%). For the same compound, the Racing thoughts (1 mg fed) was 0 n (%), the Relaxed (1 mg fed) was 0 n (%) and the Sensory disturbance (1 mg fed) was 0 n (%). The Vision blurred (1 mg fed) was 0 n (%), the Visual disturbance (1 mg fed) was 0 n (%) and the Vivid dreams (1 mg fed) was 0 n (%). For the same compound, the Abnormal physical sensation (3 mg) was 0 n (%), the “At least 1 adverse event” value (3 mg) was 3 (50.0) n (%) and the Dizziness (3 mg) was 0 n (%). For the same compound, the Drowsiness (3 mg) was 0 n (%), the Elevated mood (3 mg) was 0 n (%) and the Euphoric mood (3 mg) was 1 (16.7) n (%). The “Eye Disorders” value (3 mg) was 0 n (%), the Fatigue (3 mg) was 0 n (%) and the Feeling abnormal (3 mg) was 0 n (%). The Floating feeling (3 mg) was 0 n (%), the “Gastro-intestinal Disorders” value (3 mg) was 0 n (%) and the Hangover effect (3 mg) was 0 n (%). For the same compound, the Headache (3 mg) was 0 n (%), the Indifference (3 mg) was 0 n (%) and the “Injury, Poisoning and Procedural Complications” value (3 mg) was 0 n (%). For the same compound, the Insomnia (3 mg) was 0 n (%), the Intoxication (3 mg) was 0 n (%) and the Irritability (3 mg) was 0 n (%). The Lethargy (3 mg) was 0 n (%), the “Nervous System Disorders” value (3 mg) was 0 n (%) and the Paraesthesia (3 mg) was 0 n (%). For the same compound, the Paraesthesia oral (3 mg) was 0 n (%), the Paraesthesia tongue (3 mg) was 0 n (%) and the “Psychiatric Disorders” value (3 mg) was 1 (16.7) n (%). The Racing thoughts (3 mg) was 0 n (%), the Relaxed (3 mg) was 0 n (%) and the Sensory disturbance (3 mg) was 0 n (%). The Vision blurred (3 mg) was 0 n (%), the Visual disturbance (3 mg) was 0 n (%) and the Vivid dreams (3 mg) was 0 n (%).
